Assay results as given in patent US20040023884A1, “Biologically active peptides from functional domains of bactericidal/permeability-increasing protein and uses thereof” (priority 1993, published 2004).
Ends that are not written are not given here.

Tests used:
E. coli 0113 LPS = experiment: Limulus Amoebocyte Lysate (LAL) inhibition assay; assay type: biochemical
Procedure, shortened: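 BPI proteolytic fragments incubated with E. coli 0113 LPS (4 ng/mL final) for 3 h at 37 °C, then diluted in D-PBS to 200 pg/mL LPS for chromogenic LAL. Lysate 25 min, substrate 20–30 min at room temperature, acetic acid stop; OD405 expressed as percent LPS inhibition.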

C. albicans = experiment: Radial diffusion fungicidal assay, Candida albicans; assay type: cell-based; conditions: radial diffusion
[1] = tested on: L-form of S. aureus ATCC 19640; experiment: Activity against L-forms of gram-positive bacteria; assay type: cell-based
Procedure: The bactericidal capacity of BPI peptides provided by the invention was also tested against Gram-positive bacteria (See Table VIII A). […] In addition, peptides were tested for their activity against L-forms of gram-positive bacteria, such as the L-form of S. aureus ATCC 19640.

E. coli strain 07-K1 = experiment: Radial diffusion bactericidal assay, E. coli 07-K1; assay type: cell-based; conditions: FIG. 10c
Procedure: BPI proteolytic fragments produced according to Example 1 were screened for bactericidal effects using rough mutant E. coli J5 bacteria in a radial diffusion assay. Specifically, an overnight culture of E. coli J5 was diluted 1:50 into fresh tryptic soy broth and incubated for 3 hours at 37° C. to attain log phase growth of the culture. Bacteria were then pelleted at 3,000 rpm for 5 minutes in a Sorvall RT6000B centrifuge (Sorvall Instruments, Newton, Conn.). 5 mL of 10 mM sodium phosphate buffer (pH 7.4) was added and the preparation was re-pelleted. […] The bacteria were diluted to 4×10^6 CFU/mL in 10 mL of molten underlayer agarose (at approximately 45° C.) and inverted repeatedly to mix in 15 mL polypropylene tubes conventionally used for this purpose.
The entire contents of such tubes were then poured into a level square petri dish and distributed evenly by rocking the dish side-to-side. […] A series of wells were then punched into the hardened agarose using a sterile 3 mm punch attached to a vacuum apparatus. The punch was sterilized with 100% alcohol and allowed to air dry prior to use to avoid contaminating the bacterial culture.
5 or 10 μL of each of the BPI fragments were carefully pipetted into each well. As a negative control, dilution buffer (pH 8.3) was added to a separate well, and rBPI23 at concentrations of 5 μg/mL and 1 μg/mL were also added as positive controls. Each plate was incubated at 37° C. for 3 hours, and then 10 mL of molten overlayer agarose (at approximately 45° C.) was added into the level petri dish, allowed to harden and incubated overnight at 37° C. […] The bacterial zones were measured with a micrometer.
Additional experiments were performed using various other bacteria as target cells to examine the range of bactericidal killing of these BPI functional domain peptides.

[2] = Binding of [125I]-RaLPS to peptides pre-bound to HUVEC cells; assay type: cell-based, human; conditions: 1 μg/mL or 3 μg/mL peptide
Procedure: In a third binding assay, a number of BPI functional domain peptides were tested for their ability to bind to radiolabeled LPS following incubation with human endothelial cells (HUVEC). This assay measures the ability to bind LPS once the BPI peptides are bound to HUVEC cells. HUVEC cells were incubated in the presence of various BPI peptides at a concentration of either 1 μg/mL or 3 μg/mL for 3 hr at 4° C. in 500 μL of a solution of D-PBS/BSA. Following this incubation, the cells were washed twice with ice-cold D-PBS/BSA and then incubated for an additional 2.5 hr at 4° C. in 500 μL of a solution of [^125I]-RaLPS (a total of 340,000 cpm at a specific activity of 4.6×10^6 cpm/μg) in D-PBS/BSA. The wells were washed three times with D-PBS/BSA, solubilized in 500 μL of 1M NaOH and the lysates counted using a gamma counter.

E. coli J5 (rough) = experiment: Broth antibacterial assay, E. coli J5; assay type: cell-based
Procedure: In additional experiments, broth antibacterial assays were conducted to further determine the bactericidal activity of certain of the BPI peptides. Specifically, either E. coli J5 (rough) or E. coli 0111:B4 (smooth) bacteria were selected from single colonies on agar plates and used to inoculate 5 mL of Mueller Hinton broth and incubated overnight at 37° C. with shaking. The overnight culture was diluted (˜1:50) into 5 mL fresh broth and incubated at 37° C. to log phase (˜3 hours). Bacteria were pelleted for 5 minutes at 3000 rpm (1500×g). Bacterial pellets were resuspended in 5 mL PBS and diluted to 2×10^6 cells/mL in the Mueller Hinton broth (wherein 1 OD570 unit equals 1.25×10^9 CFU/mL). The BPI functional domain peptides to be tested were diluted to 200 μg/mL in broth and serially diluted 2-fold in 96 well culture plates (100 μL volume). All items were at 2-fold final concentration and experiments were conducted in triplicate. Bacteria were added at 100 μL/well and the plates were incubated on a shaker at 37° C. for a 20 hour period. The plates were then read on an ELISA plate multiple reader at 590 nm. One of the triplicate wells from each peptide concentration was selected for colony forming unit (CFU) determination. A 30 μL aliquot was added to 270 μL of PBS and further ten-fold serial dilutions were performed. Then a 50 μL aliquot was plated on tryptic soy agar and incubated overnight. Colonies were counted and final bacterial concentrations determined. The results of these assays are depicted in FIGS. 9e (for E. coli J5) and 9f (for E. coli 0111:B4).

| Substance | LAL / LPS inhibition activity (in words) (E. coli 0113 LPS) | C. albicans: pmol required for 30 mm^2 zone (C. albicans) [pmol] | activity against L-form bacteria (in words) [1] | bactericidal activity (in words) (E. coli strain 07-K1) | LPS binding while bound to HUVEC cells (in words) [2] | bactericidal activity (in words) (E. coli J5 (rough)) |
| --- | --- | --- | --- | --- | --- | --- |
| IKISGKWKAQKRFLK [BPI.2] | no significant LPS inhibition activity |  |  |  |  |  |
| KSKVGWLIQLFHKK-NH2 (C-terminus assumed) [BPI.13] |  | 221.63 | active against these L-form bacteria | low levels of bactericidal activity |  |  |
| KSKVGWLIQLFHKKKSKVGWLIQLFHKK-NH2 (C-terminus assumed) [BPI.29] |  | >1469.25 |  | moderate bactericidal activity | retain the capacity to bind LPS while bound to HUVEC cells |  |
| KWKAAARFLKKWKAAARFLK [BPI.48] |  |  | active against these L-form bacteria |  |  |  |
| KWKAQKRFLKKSKVGWLIQLFHKK-NH2 (C-terminus assumed) [BPI.30] |  | >1653.50 |  | high levels of bactericidal activity | retain the capacity to bind LPS while bound to HUVEC cells |  |
| KWKAQKRFLKKWKAQKRFLK-NH2 (C-terminus assumed) [BPI.7] | significant LPS inhibition properties |  |  | high levels of bactericidal activity |  | significant bactericidal activity |
| NVGLKFSISNANIKISGKWKAQKRFLK [BPI.3] | moderate LPS inhibition activity |  |  |  |  | significant anti-bacterial activity |
